In PubChem BioAssay (NCI):
Values joined by “and” are separate entries in the source; they are usually repeats but may differ in a detail not shown here. Equal values may be shown once.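 Dose response: 5 concentrations. Exposure: 48 h. Format: 96-well plates. Endpoint: linear interpolation; highest concentration if not reached. TGI: concentration producing complete growth inhibition.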

Experiments:
Assay in all cases: DTP human tumour cell line panel, 48 h
DMS 273 small cell lung = system: DMS 273 small cell lung
DMS 114 small cell lung = system: DMS 114 small cell lung
HOP-18 NSCLC = system: HOP-18 NSCLC
KM20L2 colon = system: KM20L2 colon
LXFL 529 NSCLC = system: LXFL 529 NSCLC
RXF-631 renal = system: RXF-631 renal

Compound | TGI (DMS 273 small cell lung) | TGI (DMS 114 small cell lung) | TGI (HOP-18 NSCLC) | TGI (KM20L2 colon) | TGI (LXFL 529 NSCLC) | TGI (RXF-631 renal) [µM]
CC(C)(CN1CCCCC1)C(=O)CC(SCCS(=O)(=O)O)c1ccc(Br)cc1 (configuration not stated) | 3.58 µM | 3.46 µM | 3.57 µM | 3.53 µM | 2.7 µM | 
Cc1nc2c(n1Cc1ccc(Cl)cc1)C(=O)c1ccccc1C2=O | > 75 µM |  |  | > 75 µM | > 75 µM | 
Cc1ccc(S(=O)(=O)C(C#N)c2nc3ccccc3nc2-n2cccn2)cc1 (configuration not stated) | > 100 µM | > 100 µM | > 100 µM |  | > 100 µM | 
O=C(c1cccs1)N(C(=S)N1CCN(c2ccccc2)CC1)c1ccccc1 | > 100 µM | > 100 µM | > 100 µM | > 100 µM | > 100 µM | 
NC1=NS(=O)(=O)N=C(N)C1=Cc1ccc([N+](=O)[O-])o1 | 30.3 µM | 31.9 µM | 31.8 µM | 31.3 µM | 30.8 µM | 
O=S1(=O)NNC(=NCc2ccc(F)cc2)c2ccccc21 | > 100 µM |  |  | > 100 µM | > 100 µM | 
CCOC(=O)CCC1(C(=O)OC)CCCC1=O (configuration not stated) | > 100 µM | > 100 µM | > 100 µM | > 100 µM | > 100 µM | 
CC1=NN(C(=O)CC(=O)Nc2cccc(Cl)c2)C(=O)C1N=Nc1ccc(S(N)(=O)=O)cc1 (configuration not stated) | > 100 µM | > 100 µM | > 100 µM | > 100 µM | > 100 µM | 
O=c1[nH]c(=O)n(C2CC(O)C(CO)O2)cc1C#Cc1ccc(C(F)(F)F)cc1 (configuration not stated) | > 100 µM | > 100 µM | > 100 µM | > 100 µM | > 100 µM | > 100
C/C(=N\N(C)C)C(CN(C)C)C(c1ccccc1)c1c(O)c2ccccc2oc1=O (configuration not stated) | > 100 µM | > 100 µM |  | > 100 µM | > 100 µM | 
O=C1CCC2(CCC(=O)NC2=O)C(=O)N1 | > 100 µM | > 100 µM |  | > 100 µM | > 100 µM | 
c1ccc(C2=NN3CN(N2)c2ccccc2OCCCOc2ccccc23)cc1 | > 100 µM | > 100 µM |  | > 100 µM | > 100 µM | 
Brc1ccc(N2C[N+](c3ccc(Br)cc3)=NC(c3ccccc3)=N2)cc1 | 21.1 µM and > 100 µM | 34.7 µM and 97.8 µM | 28 µM and > 100 µM | 33.8 µM and > 100 µM | 23 µM and > 100 µM | 
Cc1ccc2c(c1)c(=O)c1c(NCCN(C)C)ccc3nnn2c31 |  | 18.5 µM | 50 µM | 16 µM | 20.1 µM | 
